Test results: the NIST ThermoML archive (doi:10.1016/j.jct.2009.06.020)

What was measured:
[1] = for speed of sound / mass density / viscosity: 101.33 kPa, Liquid; for speed of sound: Single path-length method; for mass density: Vibrating tube method; for viscosity: Capillary tube (Ostwald / Ubbelohde) method
[2] = isobaric coefficient of expansion; conditions: 298.15 K; 101.33 kPa; Liquid; Curve Fitting Density Data
[3] = refractive index (Na D-line) (dimensionless); conditions: 101.33 kPa, Liquid, Standard Abbe refractometry

CCCCCCCCCCCCCC[P+](CCCCCC)(CCCCCC)CCCCCC.N#C[N-]C#N [tetradecyl(trihexyl)phosphonium dicyanamide]
Conditions | mass density, [1] [kg/m3] | refractive index, [3] | speed of sound, [1] [m/s] | viscosity, [1] [mPa·s]
278.15 K | 910.72 | – | 1599 | –
283.15 K | 907.58 | 1.48826 | 1579 | –
288.15 K | 904.66 | 1.48667 | 1561 | –
293.15 K | 901.76 | 1.48502 | 1542 | 562.45
298.15 K | 898.86 | 1.48337 | 1526 | 418.33
303.15 K | 895.98 | 1.48174 | 1509 | 312.69
308.15 K | 893.09 | 1.48008 | 1493 | 239.97
313.15 K | 890.26 | 1.47843 | 1477 | 186.79
318.15 K | 887.46 | 1.47679 | 1462 | 145.95
323.15 K | 884.65 | 1.47516 | 1447 | 116.18
328.15 K | 881.83 | 1.47352 | 1432 | 93.8
333.15 K | 879.03 | 1.47189 | 1418 | 76.14
338.15 K | 876.22 | 1.47024 | 1404 | 62.63
343.15 K | 873.42 | 1.46848 | 1390 | 51.99

Conditions | isobaric coefficient of expansion
[2] | 0.000642 1/K

CCCC[N+]1(C)CCCC1.O=S(=O)([N-]S(=O)(=O)C(F)(F)F)C(F)(F)F
Conditions | mass density, [1] [kg/m3] | refractive index, [3] | speed of sound, [1] [m/s] | viscosity, [1] [mPa·s]
278.15 K | 1412.36 | – | 1316 | –
283.15 K | 1407.86 | 1.42717 | 1303 | –
288.15 K | 1403.45 | 1.42573 | 1291 | –
293.15 K | 1399.02 | 1.4243 | 1280 | 98.07
298.15 K | 1394.59 | 1.42304 | 1269 | 76.92
303.15 K | 1390.2 | 1.42164 | 1258 | 61.47
308.15 K | 1385.8 | 1.42021 | 1247 | 49.94
313.15 K | 1381.42 | 1.41878 | 1236 | 41.22
318.15 K | 1377.04 | 1.41736 | 1225 | 34.32
323.15 K | 1372.69 | 1.41588 | 1214 | 28.95
328.15 K | 1368.35 | 1.41447 | 1204 | 24.68
333.15 K | 1364.02 | 1.413 | 1193 | 21.23
338.15 K | 1359.71 | 1.4116 | 1183 | 18.42
343.15 K | 1355.41 | 1.4102 | 1173 | 16.12

Conditions | Normal melting temperature [°C]
[1], Crystal, visual observation | -8.00

Conditions | isobaric coefficient of expansion
[2] | 0.000633 1/K
